Measured values reported in US11850250B2, “Use of homoharringtonine in preparation of betacoronavirus replication inhibitor in human” (priority 2020, dated 2023).

Tests used:
60 human cell lines = assay: Cytotoxicity of HHT in 60 human cell lines; settings: 1 μM (or lower) for 48 hours; cell lines other than the few that died obviously, of 60 human cell lines
SARS-CoV-2 = assay: microbe, parasite or virus in culture; assay type: cell-based; settings: Severe acute respiratory syndrome coronavirus 2, Vero C1008, read-out: Inhibition rate (%)

COC(=O)C[C@](O)(CCCC(C)(C)O)C(=O)O[C@@H]1C(OC)=C[C@]23CCCN2CCc2cc4c(cc2[C@H]13)OCO4 [HHT, Homoharringtonine]
cell viability (60 human cell lines): about 100% | inhibition at 0.186 µM (SARS-CoV-2; drug concentration 0.186 μM): 31.7 ± 7.64% | inhibition at 0.375 µM (SARS-CoV-2; drug concentration 0.375 μM): 60 ± 8.66% | inhibition at 0.75 µM (SARS-CoV-2; drug concentration 0.75 μM): 86.7 ± 2.89% | inhibition at 1.5 µM (SARS-CoV-2; drug concentration 1.50 μM): 93.3 ± 2.89%
